Series [1] has as its target T1, progesterone receptor (PR)-β (Homo sapiens, UniProt P06401).
T1 construct: expressed in transfected cells; host or cells: LNCaP
T1 sequence (P06401 1-933): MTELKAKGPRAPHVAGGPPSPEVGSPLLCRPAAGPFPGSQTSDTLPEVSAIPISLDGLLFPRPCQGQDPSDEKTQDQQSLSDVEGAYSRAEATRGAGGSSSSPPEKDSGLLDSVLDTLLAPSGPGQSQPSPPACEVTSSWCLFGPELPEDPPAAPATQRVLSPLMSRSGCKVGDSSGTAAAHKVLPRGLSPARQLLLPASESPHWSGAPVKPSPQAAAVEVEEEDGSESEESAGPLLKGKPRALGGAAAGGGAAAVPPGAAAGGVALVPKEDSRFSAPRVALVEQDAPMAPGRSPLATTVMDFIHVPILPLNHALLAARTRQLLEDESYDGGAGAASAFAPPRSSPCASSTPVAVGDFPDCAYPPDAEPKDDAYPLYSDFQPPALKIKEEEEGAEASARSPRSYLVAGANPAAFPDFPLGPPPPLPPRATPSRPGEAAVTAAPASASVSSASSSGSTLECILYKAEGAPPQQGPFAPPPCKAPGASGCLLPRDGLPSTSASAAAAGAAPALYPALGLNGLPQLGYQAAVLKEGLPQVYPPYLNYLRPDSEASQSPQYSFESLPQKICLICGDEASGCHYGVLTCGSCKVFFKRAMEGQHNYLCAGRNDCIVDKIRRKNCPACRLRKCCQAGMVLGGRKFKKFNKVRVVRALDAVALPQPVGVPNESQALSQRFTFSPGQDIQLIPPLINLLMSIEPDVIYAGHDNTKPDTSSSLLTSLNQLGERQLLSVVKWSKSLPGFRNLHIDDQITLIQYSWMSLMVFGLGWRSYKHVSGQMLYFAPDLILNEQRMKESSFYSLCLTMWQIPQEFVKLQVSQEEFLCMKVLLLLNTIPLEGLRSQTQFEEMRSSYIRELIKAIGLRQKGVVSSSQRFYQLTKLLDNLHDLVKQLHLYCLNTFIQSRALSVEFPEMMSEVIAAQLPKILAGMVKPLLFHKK
Put plainly: Steroid receptor specificity: PRE-luciferase reporter in LNCaP cells. The settings on record: 10 μM compound, 10 nM 4-pregnene-3,20-dione, 48 h. In kind it is cell-based. The protocol:
LNCaP cells were transfected with the reporter plasmid PSA(6.1kb)-luciferase, PRE-luciferase, or GRE-luciferase and expression vector for progesterone receptor (PR)-β or glucocorticoid receptor (GR)-α in serum-free, phenol red-free medium using Lipofectin (Invitrogen). […] After 48 h of treatment, cells were lysed and analyzed for luciferase activities.
FIGURE 1. […] A, LNCaP cells were transfected with PSA (6.1 kb)-luciferase, PRE-luciferase, or GRE-luciferase reporters and expression vector for PRβ or GRα. […] Error bars represent mean percentage of vehicle activity ±S.E. of at least three independent experiments with triplicate wells. SINT1, 10 μM; […]; ***, p < 0.001. […]. Error bars represents mean ± S.E. of three technical replicates. […] DAPI staining indicates the location of the nucleus. Scale bars, 20 μm.

Another series has as its system LNCaP cells. Also noted: method as in PMID 18834139. The settings on record: cited from earlier work.
The nature of series [2]: Pharmacokinetics in CD-1 mice. In kind it is in vivo. The note with it: single intravenous dose 50 mg/kg. The protocol: Pharmacokinetics assays were performed by NAEJA Pharmaceutical Inc. in a total of 27 CD-1 mice, which received a single intravenous SINT1 dose of 50 mg/kg of body weight. Blood samples were collected during a period of 2.5 min to 8 h postdosing from three mice per time point. Plasma concentrations of SINT1 and pharmacokinetics parameters were determined.

The test system of the next series is LNCaP xenografts. Kind of series: LNCaP CRPC xenografts in castrated mice. In kind it is in vivo, NOD-SCID mice. The protocol: Male NOD-SCID mice bearing subcutaneous LNCaP or LNCaP95 tumors were castrated when the tumor volume reached ∼100 mm^3. Seven days after castration, animals were injected intratumorally with 30 mg/kg of body weight SINT1 or a matching volume of vehicle (DMSO) every 3 days for a total of 15 days. Animal behavior and body weight were observed throughout the study period for signs of toxicity. Tumor volumes were calculated by the formula length × width × height × 0.5236. Tumors were excised 3 days after the last injection and prepared for immunohistochemistry or gene expression.
Xenograft sections were stained with hematoxylin and eosin and for Ki67 expression by Wax it Histology Inc. Cells that were positive for Ki67 were counted in sections from three xenografts for each treatment. For PSA and AR staining, dewaxed sections were microwaved for 10 min on full power in prewarmed Antigen Unmasking Solution (pH 6; Vector Laboratories, Inc.). The endogenous peroxidase activity was blocked by incubation in 3% H2O2 for 10 min followed by incubation in Clear Vision Histostaining Blocking Solution (UniCure Lab, Inc.) for 1 h at room temperature. Sections were incubated with AR-N20 (1:500 dilution) and PSA (1:5 dilution; overnight at 4 °C) primary antibodies. Samples were then incubated for 30 min at room temperature with secondary antibodies and mounted in Permount mounting medium (SP15–100, Fisher).

Setting [3] is: mice sets 1-3 and mean ± S.D., mean.

These results are taken from article PMC5064002, “Sintokamide A Is a Novel Antagonist of Androgen Receptor That Uniquely Binds Activation Function-1 in Its Amino-terminal Domain” (The Journal of Biological Chemistry, 2016).

Structures are written as SMILES. Several values for one entry are separate records, joined by “and”; a condition that tells them apart may be missing. Equal entries are not always repeated. Where two headings read alike, the source gives them in different places.

As to `CCC(=O)NC(CC(C)C(Cl)(Cl)Cl)C(=O)N1C(=O)C=C(OC)C1CC(C)C(Cl)Cl` (stereo not drawn) [SINT1, Sintokamide A], the “PR transcriptional activity (PRE-luciferase)” value in series [1] is “did not affect”. Besides, in the series with LNCaP cells, the “androgen-dependent growth of LNCaP cells” value was “block”. Besides, the Cmax in series [2] (CD-1, mouse, plasma, iv, 50 mg/kg, plasma, mice sets 1-3 and mean ± S.D., read-out: Cmax) was 3990 ng/mL; in series [2] (CD-1, mouse, plasma, iv, 50 mg/kg, read-out: Cmax in plasma) it was around 8 µM; in series [2] (plasma, mice sets 1-3 and mean ± S.D.), 4440 ng/mL and 4030 ng/mL; in series [2] (plasma, mice sets 1-3 and mean ± S.D., mean), 4150 ± 250 ng/mL. The compound further returned an AUC(0-inf) in series [2] (CD-1, mouse, plasma, iv, 50 mg/kg, mice sets 1-3 and mean ± S.D.) of 1840 ng·h/mL. In addition, in series [2] (CD-1, mouse, plasma, iv, 50 mg/kg, mice sets 1-3 and mean ± S.D., read-out: Cl (plasma clearance) (converted)), the clearance was 366 mL/min/kg. The Vd in series [2] (CD-1, mouse, plasma, iv, 50 mg/kg, mice sets 1-3 and mean ± S.D., read-out: Vd (volume of distribution)) came to 43.7 L/kg. Moreover, in series [2] (CD-1, mouse, plasma, iv, 50 mg/kg, mice sets 1-3 and mean ± S.D., read-out: t½ (elimination half-life) (converted)), the half-life was 1.38 h. For the same compound, the AUCinf in series [2] (mice sets 1-3 and mean ± S.D.) was 2370 ng·h/mL and 1510 ng·h/mL; in series [2] (setting [3]) it was 1900 ± 430 ng·h/mL. For the same compound, the “Cl (plasma clearance)” value in series [2] (mice sets 1-3 and mean ± S.D.) is 284 mL/min/kg and 446.7 mL/min/kg; in series [2] (setting [3]), 365.5 ± 81.3 mL/min/kg. The “t½ (elimination half-life)” value is 1.10 h and 1.01 h in series [2] (mice sets 1-3 and mean ± S.D.); 1.16 ± 0.19 h in series [2] (setting [3]). In addition, in the series on LNCaP xenografts (castrated mice, 30 mg/kg intratumorally every 3 days, five doses, n = 8, p = 0.0495), the “CRPC tumor overall growth” value turned out to be 112 ± 13%. Also, in the series with LNCaP xenografts (day 15 vs day of first dose), the “animals achieving a serum PSA drop of ≥50%” value is given as “six”. In the series with LNCaP xenografts (immunohistochemistry), the “number of Ki67-positive cells in harvested xenografts” value is given as “reduced”. Moreover, in the series with LNCaP xenografts (immunohistochemistry, vs vehicle control), the “levels of PSA in xenografts” value is given as “marked decreases”. Also, the “levels and cellular localization of AR protein in xenografts” value in the series on LNCaP xenografts (immunohistochemistry, vs vehicle-treated) was “similar”.

As usually defined, the Cmax is the maximum level reached in the sampled fluid or tissue. One may read the AUC(0-inf) as total exposure, with the tail of the curve extrapolated. As usually defined, the clearance is the volume of plasma or blood freed of the substance per unit of time. As a reminder, the Vd is a proportionality between amount in the body and measured concentration, not a real space. The term half-life denotes how long it takes for the measured level to halve.
